Values of other authors, collected in patent US12667556B2, “Extended release injectable formulations comprising an isoxazoline active agent, methods and uses thereof” (BOEHRINGER INGELHEIM ANIMAL HEALTH USA INC., priority 2015, dated 2026).
≈ marks a conversion by molar mass, not a printed value.

System: fleas

Structure (SMILES): O=C(CNC(=O)c1ccc(C2=NOC(c3cc(Cl)cc(C(F)(F)F)c3)(C(F)(F)F)C2)c2ccccc12)NCC(F)(F)F (centres unmarked) [compound (IIc), 4-[5-[3-chloro-5-(trifluoromethyl)phenyl]-4,5-dihydro-5-(trifluoromethyl)-3-isoxazolyl]-N-[2-oxo-2-[(2,2,2-trifluoroethyl)amino]ethyl]-1-naphthalenecarboxamide]
- EC90 (plasma concentration) against fleas on dogs (Letendre et al., Veterinary Parasitology 201 (2014) 190-197): 0.023 µg/mL (≈ 0.0367 µM)
- plasma concentration known to effectively control fleas on dogs (known, literature): about 20 ng/ml
